Assay results from patent publication US20190159449A1, “USE OF NON-PROLINE CYCLIC AMINO ACIDS TO INCREASE THE TOLERANCE OF PLANTS TO CONDITIONS OF OSMOTIC STRESS” (CONSEJO SUPERIOR DE INVESTIGACIONES CIENTÍFICAS (CSIC), priority 2016, published 2019).
Marks after values point to notes of the source that are not given here.

How the values were obtained:
Assay type in all cases: in vivo
Arabidopsis thaliana = assay: Salt stress (50 mM NaCl) growth assay of hydroponically grown Arabidopsis thaliana after 24 h root treatment; settings: for Fresh weight / RGR (relative growth rate) / S.I (sensitivity index) / % reduction RGR: 2.5 mM treatment 24 h; for Fresh weight: aerial part; for Effect on growth and tolerance to salt stress (in words): 2.5 mM treatment, 50 mM NaCl; for S.I (sensitivity index) / % reduction RGR: 7 days with 50 mM NaCl; for S.I (sensitivity index): S.I = DWs − DWc/DWc; for % reduction RGR: relative to control conditions
Method: The conditions described below were used as the base for all examples included below. The growing conditions, such as the nutrient solution and the substrate used have been optimized to perform this type of experiments. Likewise, the dose of NaCl used has been optimized for this type of experiments since 50 mM makes it possible to evaluate if a treatment is capable of increasing tolerance to salinity (Jiménez-Arias et al., 2015. Environmental and Experimental Botany 120, 23-30).
A hydroponic culture system was used for the cultivation of the Arabidopsis thaliana plants necessary for the assays. This system was established in hydroponics trays with 1.9 L capacity (Araponics®) wherein 18 plants were grown per container. A mixture of river sand with two different granulometries was used as physical substrate. The seeds were sowed in seed-holders, which were deposited during one week in a small greenhouse consisting of a high-density polyethylene tray with river sand (washed siliceous sand, with medium granulometry) with sterile distilled water covered with a transparent plastic sheet which was deposited in a growth chamber at 22±2° C., with a photoperiod of 16 hours of light (100-110 μmol m-2 s-1 of PAR) and with 100% relative humidity. After one week, the seed-holders with the seedlings were transferred to the hydroponics trays in the same photoperiod and light intensity conditions but with 60-70% of relative humidity. The seedlings were maintained without aeration during the first week, after this the solution (Table 1) was generously aerated using aeration pumps and was renewed every 7 days.
(§1) In this way, 21-day old plants were treated during 24 hours in nutrient solution enriched with a concentration of 2.5 mM of alanine. Subsequently, the plants were deposited in normal nutrient solution for 24 hours and they later grew for 7 days in nutrient solution with or without a supply of 50 mM of NaCl. This experiment was repeated twice, using 12 plants per experiment, with the value shown in table 2 being the average of 24 plants for each one of the conditions.
Subsequently, the wet weight of the aerial part of the plants was determined.
as §1, with “21-day” for “In this way, 21-day”, “pyroglutamic acid or pipecolinic acid.” for “alanine.”
The plants were deposited in nutrient solution enriched with one of the compounds indicated above for 24 hours and they later grew for 7 days in nutrient solution with a supply of 50 mM of NaCl. As control, the plants grown on nutrient solution and NaCl were used. This experiment was repeated twice, using 12 plants per experiment, with the value shown in table 2 being the average of 24 plants for each one of the conditions.
Two measurements were used in order to illustrate the defence to salt stress. First, the values for the sensitivity index (S.I) described by Saadallah et al. (2001, Agronomie 21, 627-634) is shown.
The greater the negative value of the S.I., the greater the negative effect of salinity on the plant. The second measurement is a percentage of reduction in the relative a growth rate of the plant subjected to conditions of salt stress.

[1] = tested on: Solanum lycopersicum (tomato); assay: Salt stress growth assay of hydroponic tomato plants after 24 h root treatment; settings: 2.5 mM; for Decrease in growth in saline conditions with respect to growth in the control solution: 7 days in NaCl solution, fresh weight; for Increase in tolerance compared with the proline treatment / Increase in tolerance compared with the control: saline conditions; for Increase in tolerance compared with the proline treatment: versus proline 2.5 mM; for Increase in tolerance compared with the control: versus reference group
Method: As an example, tomato (Solanum lycopersicum) of the variety Realeza pear was used. […] From the first day, the solution was generously aerated by air pumps (30 min per day). The plants were maintained during two days with this proportion of solution and distilled water, and then they were removed from the medium and placed, under the same conditions, in plastic containers during 24 hours with the different treatments in distilled water (table 5): After 24 hours, the plants were again introduced in the trays with the same proportion of distilled water/nutrient solution stated above and they were maintained like this for 48 hours. […] Then, the growth of treated and untreated plants was compared, in normal conditions and salinity conditions. For the statistical analysis, the data collected was subjected to the normality test of the Kolmogorov-Smirnov test with the Lilliefors correction. Levene's test was used to verify the homoscedasticity of the data. As the data behaved following a normal distribution, its measurements were compared by one-way ANOVA and the significant differences were calculated using the Bonferroni post hoc test. The statistical analyses were performed with the SSPS computer package, version 20 for Windows.

[2] = tested on: Solanum lycopersicum (tomato); assay: Drought (water deficit) assay of tomato in greenhouse conditions; settings: four root treatments at 2.5 mM, after 10 days of drought; for Net photosynthesis: versus drought reference
Method: The crop used was tomato (Solanum lycopersicum) of the “Gransol” capa negra variety. The experiment was performed in a glass greenhouse with four tables measuring 10 metres in length by 2 metres in width. Drip irrigation was used, supplied by self-compensated drippers to control the flow of water at all times.
5-week old seedings were transplanted to 2-litre capacity pots using a mixture of peat and river sand to facilitate drainage. In total, 120 tomato plants were used. Four treatments were performed on 40 plants after the transplant (with 15 days between each treatment), adding 50 ml of a 2.5 mM concentration of Pyroglutamic to each pot.
Another 40 plants were treated via root applications using 2.5 mM of pipecolinic acid. The remaining plants randomly distributed throughout the greenhouse were treated with distilled water by way of control. The drought assay commenced on completing the four treatments, which was performed by removing the dripper from the 20 plants randomly chosen for each one of the treatments. The plants were deprived of water for 10 days.
The relative water content of the leaf was estimated after 10 days of drought for each one of the treatments, in control conditions and drought conditions, using 15 leaves. The following formula was used for this:
R.W.C(%)/=[(Fw−Dw)/(Tw−Dw)]×100
With Fw: fresh weight; Dw: dry weight; Tw: turgor weight. RWC is the measurement most commonly used to estimate the possible water deficit a plant leaf has.
Furthermore, photosynthesis was estimated with the “Lc-pro sd” system (ADC Bioscientific). To do this, the tomato leaves were stimulated with a light source at 1000 μmol m-2 s-1, with this light intensity being previously estimated to achieve the maximum photosynthesis in our crop and conditions. To do this, the parameters of net photosynthesis (A) and evapotranspiration (E) were determined, calculating with them the efficiency in water use (A/E) as described by Lambers et al. (2008. Plant Physiological Ecology. 2nd edition. Springer, New York). The measurements were taken after 10 days of assay from six plants for each one of the treatments.
The data of the different variables were subjected to the normality test using the Kolmogorov-Smirnov test with the Lilliefors correction. Levene's test was used to verify the homoscedasticity of the data. As the data behaved following a normal distribution, its measurements were compared by one-way ANOVA and the significant differences were calculated using the Bonferroni post hoc test. The statistical analyses were performed with the SSPS computer package, version 20 for Windows.

[3] = 7 days in nutrient solution with 50 mM NaCl (saline conditions)
[4] = 7 days in nutrient solution without NaCl (optimal conditions)
[5] = 7 days with 50 mM NaCl (saline conditions)
[6] = 7 days without NaCl (optimal conditions)

C[C@H](N)C(=O)O [Alanine, alanine, reference compound]
Fresh weight (Arabidopsis thaliana; [3]): 36 ± 2 mg plant
Fresh weight (Arabidopsis thaliana; [4]): 142 ± 8 mg plant
RGR (relative growth rate) (Arabidopsis thaliana; [5]): 0.11**
RGR (relative growth rate) (Arabidopsis thaliana; [6]): 0.58
Effect on growth and tolerance to salt stress (in words) (Arabidopsis thaliana): not capable of promoting growth, nor increasing tolerance to salinity

O=C(O)[C@@H]1C[C@@H](O)CN1 [Hydroxyproline, hydroxyproline, reference compound]
S.I (sensitivity index) (Arabidopsis thaliana): −0.25**
% reduction RGR (Arabidopsis thaliana): 24.34** %
Decrease in growth in saline conditions with respect to growth in the control solution [1]: 17%
Decrease in growth under control conditions with respect to the reference ([1]; 7 days, control solution without salt, plant weight): 35%

O=C(O)C1CCCCN1 (stereo not shown) [Pipecolinic acid, pipecolinic acid]
Decrease in relative water content of the leaf with respect to its control [2]: 5.1%
Net photosynthesis [2]: greater than the drought reference plants
Fresh weight (Arabidopsis thaliana; [3]): 133.9 ± 21 mg plant
Fresh weight (Arabidopsis thaliana; [4]): 145.9 ± 22 mg plant
RGR (relative growth rate) (Arabidopsis thaliana; [5]): 0.45
S.I (sensitivity index) (Arabidopsis thaliana): −0.07**
% reduction RGR (Arabidopsis thaliana): 8.12** %
RGR (relative growth rate) (Arabidopsis thaliana; [6]): 0.46
Effect on growth and tolerance to salt stress (in words) (Arabidopsis thaliana): effect on the increased tolerance to salt stress is proven
Decrease in growth in saline conditions with respect to growth in the control solution [1]: 7%
Increase in tolerance compared with the proline treatment [1]: 83%
Increase in tolerance compared with the control [1]: 78%

O=C(O)[C@@H]1CCCN1 [Proline, proline]
Decrease in growth in saline conditions with respect to growth in the control solution [1]: 42%

O=C1CC[C@@H](C(=O)O)N1 [Pyroglutamic acid, pyroglutamic acid]
Decrease in relative water content of the leaf with respect to its control [2]: did not show this decrease
Net photosynthesis [2]: greater than the drought reference plants
Fresh weight (Arabidopsis thaliana; [3]): 170.4 ± 15 mg plant
Fresh weight (Arabidopsis thaliana; [4]): 183.9 ± 15 mg plant
RGR (relative growth rate) (Arabidopsis thaliana; [5]): 0.49
S.I (sensitivity index) (Arabidopsis thaliana): −0.1**
% reduction RGR (Arabidopsis thaliana): 10.22** %
RGR (relative growth rate) (Arabidopsis thaliana; [6]): 0.56
Effect on growth and tolerance to salt stress (in words) (Arabidopsis thaliana): effect on the increased tolerance to salt stress is proven
Decrease in growth in saline conditions with respect to growth in the control solution [1]: 9%
Increase in tolerance compared with the proline treatment [1]: 78%
Increase in tolerance compared with the control [1]: 72%
